Reference: ChEMBL document CHEMBL1250548, “Synthesis and anti-HIV-1 evaluation of phosphonates which mimic the 5'-monophosphate of 4'-branched 2',3'-didehydro-2',3'-dideoxy nucleosides” (Bioorg Med Chem, 2010)

How the values were obtained:
[1] = Cytotoxicity against human MT4 cells assessed as reduction of cell viability; assay type: cell-based
[2] = tested on: Human immunodeficiency virus 1; assay: Antiviral activity against HIV1 infected in human MT4 cells assessed as protection against virus-induced cytopathic effect; assay type: functional, organism-based; conditions: Human immunodeficiency virus 1, MT4

SMILES	CC50 [1] [µM]	IC50 [2] [µM]
Cc1cn([C@H]2C=C[C@@H](CO)O2)c(=O)[nH]c1=O [STAVUDINE]	> 600	1.2
C#C[C@@]1(OCP(=O)(O)O)C=C[C@H](n2cc(C)c(=O)[nH]c2=O)O1	> 100	> 100
C#C[C@@]1(OCP(=O)(O)O)C=C[C@H](n2cnc3c(N)ncnc32)O1	> 100	1.69
Nc1ncnc2c1ncn2[C@H]1C=C[C@@H](OCP(=O)(O)O)O1	> 600	1.5
Cc1cn([C@H]2C=C[C@@H](OCP(=O)(O)O)O2)c(=O)[nH]c1=O	> 600	12
